Laboratory results published in ChEMBL document CHEMBL1131565, “Aminopyrimidines with high affinity for both serotonin and dopamine receptors” (J Med Chem, 1998).

Key:
D(2) dopamine receptor [1] = target: T1, D(2) dopamine receptor (Homo sapiens, UniProt P14416); assay: biochemical
Description: Binding affinity determined by measuring its ability to displace [3H]N-0437 radioligand in CHO-K1 cells on Cloned Human Dopamine receptor D2

[2] = target: T2, 5-hydroxytryptamine receptor 1A (Rattus norvegicus, UniProt P19327); assay: The binding affinity by measuring its ability to displace [3H]8-OH-DPAT radioligand in 5-hydroxytryptamine 1A receptor on rat hippocampal preparation; assay type: tissue-based, Hippocampus
T2 sequence (P19327 whole entry): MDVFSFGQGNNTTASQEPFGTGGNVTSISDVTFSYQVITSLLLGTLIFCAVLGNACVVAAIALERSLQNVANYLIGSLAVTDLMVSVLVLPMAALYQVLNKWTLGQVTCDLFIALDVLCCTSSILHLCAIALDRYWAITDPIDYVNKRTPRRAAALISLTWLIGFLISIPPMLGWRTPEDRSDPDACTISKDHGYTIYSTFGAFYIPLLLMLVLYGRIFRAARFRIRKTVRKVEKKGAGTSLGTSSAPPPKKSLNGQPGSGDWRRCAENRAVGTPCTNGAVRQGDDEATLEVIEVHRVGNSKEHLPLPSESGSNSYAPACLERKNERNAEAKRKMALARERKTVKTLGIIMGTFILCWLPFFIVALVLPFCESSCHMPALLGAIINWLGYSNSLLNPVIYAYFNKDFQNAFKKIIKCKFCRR

D(3) dopamine receptor = D(3) dopamine receptor (Homo sapiens, UniProt P35462); assay: biochemical
Sequence of D(3) dopamine receptor (P35462 whole entry): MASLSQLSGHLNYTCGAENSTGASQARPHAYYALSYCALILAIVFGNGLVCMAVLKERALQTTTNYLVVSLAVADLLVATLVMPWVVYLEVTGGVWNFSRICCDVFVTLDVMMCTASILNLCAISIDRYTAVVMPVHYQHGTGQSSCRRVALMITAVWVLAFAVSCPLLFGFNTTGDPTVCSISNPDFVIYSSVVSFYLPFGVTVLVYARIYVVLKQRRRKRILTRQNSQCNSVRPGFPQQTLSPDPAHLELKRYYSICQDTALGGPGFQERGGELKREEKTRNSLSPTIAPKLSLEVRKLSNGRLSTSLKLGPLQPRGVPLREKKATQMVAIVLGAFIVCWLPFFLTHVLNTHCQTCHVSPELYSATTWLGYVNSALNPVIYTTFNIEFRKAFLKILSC
Description: Binding affinity determined by measuring displacement of [3H]spiperone from cloned Human Dopamine receptor D3 in CHO-K1 cells

Rattus norvegicus [3] = assay: In vivo DA d2 activity determined by measuring effects on DA synthesis by observing the changes in accumulation of (DOPA) after administration of a 10 mg/kg ip; assay type: functional; settings: route intraperitoneal
D(2) dopamine receptor [4] = target: T1, D(2) dopamine receptor; assay: The in vitro intrinsic activity was measured at DA D2 receptor by measuring its ability to increase [3H]thymidine uptake in CHO-K1 cells transfected with the Dopamine receptor D2; assay type: cell-based
[5] = target: 5-hydroxytryptamine receptor 1A (Rattus norvegicus) (UniProt P19327); assay: Intrinsic agonist activity at 5-HT1A receptors was measured in vivo by measuring changes in 5-HT levels after administration of compound by observing accumulation of the 5-HT […] 5-hydroxytryptophan (5-HTP) after administration of a 10 mg/k g ip
D(2) dopamine receptor [6] = target: T1, D(2) dopamine receptor; assay: Percentage intrinsic activity measured at DA D2 receptor by measuring its ability to […] [3H]-thymidine uptake in CHO-K1 cells transfected with the Dopamine receptor D2; assay type: cell-based
Rattus norvegicus [7] = assay: In vivo DA D2 activity determined by measuring effects on DA synthesis by observing the changes in accumulation of (DOPA) after administration of a 10 mg/kg ip; assay type: functional; settings: route intraperitoneal
Mus musculus = assay: The inhibited exploratory locomotor activity of compound in mice after ip administration; assay type: functional
Rattus norvegicus [8] = assay: The % decrease of rat striatal dopamine overflow at the dose of 10 mg/kg through ip.; assay type: functional
[9] = The inhibition of Sidman avoidance responding of compound in squirrel monkeys after oral administration
Rattus norvegicus [10] = assay: The % decrease of rat striatal 5-HIAA overflow at the dose of 10 mg/kg through ip.; assay type: functional
Rattus norvegicus [11] = assay: The inhibited exploratory locomotor activity of compound in rat after oral administration; assay type: functional

T1 sequence (P14416 whole entry): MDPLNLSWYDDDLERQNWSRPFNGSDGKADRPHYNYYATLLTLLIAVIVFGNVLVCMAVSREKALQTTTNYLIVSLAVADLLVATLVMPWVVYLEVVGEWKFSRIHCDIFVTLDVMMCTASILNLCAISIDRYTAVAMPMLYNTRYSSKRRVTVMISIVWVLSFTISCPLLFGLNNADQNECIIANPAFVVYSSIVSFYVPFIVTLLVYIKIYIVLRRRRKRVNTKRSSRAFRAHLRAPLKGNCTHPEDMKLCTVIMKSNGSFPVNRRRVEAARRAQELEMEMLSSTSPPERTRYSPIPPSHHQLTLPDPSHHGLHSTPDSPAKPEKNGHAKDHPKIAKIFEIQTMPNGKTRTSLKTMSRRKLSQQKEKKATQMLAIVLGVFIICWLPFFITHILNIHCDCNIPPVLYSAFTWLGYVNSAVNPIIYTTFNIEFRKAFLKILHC

| Ki (D(2) dopamine receptor [1]) [nM] | Ki [2] [nM] | Ki (D(3) dopamine receptor) [nM] | SMILES | also measured |
| --- | --- | --- | --- | --- |
| 39 | 91 | – | CN(CCc1ccccc1)CC[C@H]1CC[C@H](Nc2ncccn2)CC1 | – |
| 240 | 8.6 | 590 | c1cnc(N[C@H]2CC[C@H](CCN3CCN(c4ncccn4)CC3)CC2)nc1 | – |
| – | 5300 | – | O=C(N[C@H]1CC[C@H](CCN2CCN(c3ccccc3)CC2)CC1)C1CCCCC1 | – |
| 5.7 | 41 | 89 | c1ccc(N2CCN(C[C@H]3CC[C@H](Nc4ncccn4)CC3)CC2)cc1 | – |
| 180 | 29 | 210 | c1cnc(N[C@H]2CC[C@H](CCN3CCN(c4cnccn4)CC3)CC2)nc1 | – |
| 110 | 44 | 40 | c1cnc(N[C@H]2CC[C@H](CCN3CCc4ccccc4C3)CC2)nc1 | – |
| 390 | 160 | 52 | COc1ccc(N2CCN(CC[C@H]3CC[C@H](Nc4ncccn4)CC3)CC2)cc1 | – |
| 2400 | – | 800 | CCCN(CCC)CC[C@H]1CC[C@H](Nc2ncccn2)CC1 | – |
| 8.5 | 4.5 | 48 | Fc1ccc(N2CCN(CC[C@H]3CC[C@H](Nc4ncccn4)CC3)CC2)cc1 | Control (Rattus norvegicus [3]): 142%; IC50 (D(2) dopamine receptor [4]): 79 nM; Control [5]: 143%; Intrinsic activity (D(2) dopamine receptor [6]): 5% |
| 4800 | 730 | 2300 | c1cnc(N[C@H]2CC[C@H](CCN3CCN(c4ccncc4)CC3)CC2)nc1 | – |
| – | – | 29 | c1ccc(N2CCN(CC[C@H]3CC[C@@H](Nc4ncccn4)CC3)CC2)cc1 | – |
| 7.4 | 16 | 54 | c1ccc(N2CCN(CCC[C@H]3CC[C@H](Nc4ncccn4)CC3)CC2)cc1 | – |
| 320 | 83 | 610 | c1ccc(N2CCN(C3CCC(Nc4ncccn4)CC3)CC2)cc1 (stereo in doubt; 20) | – |
| 4.8 | 4.7 | 24 | CN(c1ncccn1)[C@H]1CC[C@H](CCN2CCN(c3ccccc3)CC2)CC1 | – |
| – | 57 | – | O=C(N[C@H]1CC[C@H](CCN2CCN(c3ccccc3)CC2)CC1)c1cccs1 | – |
| 160 | 470 | 550 | c1ccc(N2CCN(C3CCC(Nc4ncccn4)CC3)CC2)cc1 (stereo in doubt; 19) | – |
| 5.2 | 3.5 | 13.7 | c1ccc(N2CCN(CC[C@H]3CC[C@H](Nc4ncccn4)CC3)CC2)cc1 | ED50 (Mus musculus): 0.4 mg/kg; EC50 (D(2) dopamine receptor [4]): 29 nM; Control (Rattus norvegicus [7]): 67%; Decrease (Rattus norvegicus [8]): 50%; Intrinsic activity (D(2) dopamine receptor [6]): 60%; ED50 [9]: 0.28 mg/kg; Decrease (Rattus norvegicus [10]): 42%; ED50 (Rattus norvegicus [11]): 4.6 mg/kg |

| SMILES | Ki (D(2) dopamine receptor [1]) [nM] | Ki [2] [nM] | Ki (D(3) dopamine receptor) [nM] | also measured |
| --- | --- | --- | --- | --- |
| c1cnc(N[C@H]2CC[C@H](CCN3CCN(c4cccnc4)CC3)CC2)nc1 | 25 | 9.5 | 4.7 | – |
| c1ccc(N2CCN(CC[C@H]3CC[C@H](Nc4ncnc5ccccc45)CC3)CC2)cc1 | 3.2 | 74 | 0.02 | – |
| C1=C(c2ccccc2)CCN(CC[C@H]2CC[C@H](Nc3ncccn3)CC2)C1 | 4.7 | 3.9 | 3.7 | – |
| COc1ccccc1N1CCN(CC[C@H]2CC[C@H](Nc3ncccn3)CC2)CC1 | 3 | 0.5 | 11 | IC50 (D(2) dopamine receptor [4]): 9.9 nM; Control [5]: 128%; Control (Rattus norvegicus [7]): 173%; Intrinsic activity (D(2) dopamine receptor [6]): 8% |
| Clc1cccc(N2CCN(CC[C@H]3CC[C@H](Nc4ncccn4)CC3)CC2)c1Cl | 11 | 76 | 5 | – |
| c1ccc(N2CCN(CC[C@H]3CC[C@H](Nc4ncccn4)CC3)CC2)nc1 | – | 2.2 | 26 | Control (Rattus norvegicus [3]): 159%; Intrinsic activity (D(2) dopamine receptor [6]): 41% |
| c1cnc(N[C@H]2CC[C@H](CCN3CCN(c4nccs4)CC3)CC2)nc1 | 46 | 10 | – | – |
| FC(F)(F)c1cccc(N2CCN(CC[C@H]3CC[C@H](Nc4ncccn4)CC3)CC2)c1 | 6 | 13 | 32 | – |
